From US8227457B2, “Method for treatment of diseases” (DMI Acquisition Corp., priority 2009, dated 2012)

How the values were obtained:
[1] = system: human retinal endothelial cells; assay: Actin stress fiber formation (rhodamine-phalloidin F-actin staining), VEGF, Example 8; format: cell-based; settings: for effect on VEGF-induced stress fiber pattern: then VEGF 25 ng/ml 30 minutes
Procedure: . […] To counter-stain for nuclei, 100 μl of a 3 μM DAPI (4,6-diamidino-2-phenylindole, dilactate (Invitrogen)) solution was added to each well. After 5 minutes, the cells were washed two times with 100 μl PBS.

VE-Cadherin = assay: VE-cadherin phosphorylation (immunoprecipitation, Pro-Q diamond / SYPRO ruby densitometry); format: cell-based, human; settings: danazol 0.1 μM, VEGF 50 ng/ml
Procedure: The plates were immediately treated to lyse the cells as follows. PBS and the lysis buffer (PBS containing 1% Triton X-100 supplemented with phosphatase inhibitor solutions 1 and 2 (Sigma), protease inhibitor (Sigma) and sodium orthovanadate at a final concentration of 2 mM) were cooled to 4° C. The cells were washed two times with 5 ml of the ice cold PBS and then lysed in 500 μl of the ice cold lysis buffer. The resulting protein extracts were transferred to 1.7 ml microcentrifuge tubes, and cell debris was removed by spinning at 4° C. at 10,000 rpm for 10 minutes. Then, 450 μl of the cleared solution was transferred to tubes containing 25 μl of Protein Dynabeads (Invitrogen) coated with 10 μl C19 anti-VE cadherin polyclonal antibody (Santa Cruz Biotechnology) (coating performed following manufacturer's protocol). The extracts and beads were then incubated overnight at 4° C. on an orbital shaker to capture VE cadherin from the extracts. The beads were then washed four times with ice cold lysis buffer. To release the protein from the beads, they were heated for 10 minutes at 75° C. in SDS loading dye containing 20% reducing dye (Invitrogen).
The released proteins were separated in 4-20% polyacrylamide gels (Invitrogen) at 120 volts for 1 hour. To determine phosphorylation and total protein in the gels, Pro-Q diamond (Invitrogen) and SYPRO ruby (Invitrogen) protein staining were sequentially performed following the manufacturer's protocol. The gels were photographed and densitometry performed using a Kodak imaging station.

Akt = Akt phosphorylation (CASE ELISA kit for AKT S473) in retinal endothelial cells; format: cell-based, human; settings: all of the concentrations (0.5-50.0 μM)
Procedure: The cells were grown in a 25 cm^2 flask to near confluence in EGM-2 medium (Lonza, Walkersville, Md.) containing 2% fetal calf serum (Lonza). […] The plate was incubated at 37° C. with 5% CO2 for 24 hours. […] After this incubation, the cells were fixed immediately with 4% formaldehyde, refrigerated, and the extent of phosphorylation of Akt determined using the Akt Cellular Activation of Signaling ELISA Kit (CASE™ Kit for AKT 5473; SABiosciences, Frederick, Md.) following the manufacturer's protocols. The CASE™ Kit for AKT S473 quantifies the amount of activated (phosphorylated) Akt protein relative to total Akt protein in parallel assays using a conventional ELISA format with colorimetric detection. The Akt phosphorylation site is serine 473 and is recognized by one of the antibodies used in one of the two parallel assays to provide a measure of activated Akt protein. The other antibody used in the other parallel assay recognizes Akt to provide a measure of total Akt protein. Both primary antibodies are detected using a horseradish peroxidase-labeled secondary antibody. Addition of the manufacturer's Developing Solution for 10 minutes, followed by addition of the manufacturer's Stop Solution, produces the result which can be measured colorimetrically.

HUVECs [2] = assay: HUVEC tube formation assay on matrigel plugs; format: cell-based, human; settings: 18 hours, 5% FCS
Procedure: To investigate the formation of capillary-like structures by HUVECs, the Angiogenesis System: Endothelial Cell Tube Formation Assay was purchased from BD Biosciences (San Jose, Calif.) and used according to the manufacturer's protocol. In brief, 100,000 HUVECs were seeded onto rehydrated matrigel plugs in 96 well tissue culture plates in the presence of 5% FCS to induce tube formation.
Endothelial cells when cultured in the presence of angiogenic substances and supplied with an extracellular matrix scaffold will differentiate into structures loosely resembling capillary vessels.

[3] = system: human retinal endothelial cells; assay: TER of retinal endothelial cell monolayers with steroid receptor antagonists and hormones, Example 10
HUVECs [4] = assay: HUVEC invasion (BioCoat Matrigel Invasion Chambers); format: cell-based, human; settings: 10 μM and 100 μM, 24 hours
Procedure: BioCoat Matrigel Invasion Chambers were purchased from BD Biosciences (San Jose, Calif.). Inserts were rehydrated at 37° C. with 500 μl HBSS for 2 hours prior to use in humidified incubator. Trypsinized HUVECs were washed twice with warm EGM-2 containing 0.1% FCS and added to the upper chamber of the invasion insert at 100,000 cells in a total volume of 250 μl. […]. Non-invasive cells were removed from the upper chamber with moistened cotton swabs and then the inserts were washed twice with HBSS. The inserts were then submerged in 10 μM calcein AM prepared in HBSS and incubated for 4 hours. Fluorescence was determined in a microplate reader at 485 nm excitation and 595 nm emission.
All data is presented as representative experiment done in triplicate. Differences between subsets were analyzed using student t-test in Microsoft Excel. P<0.05 was considered statistically significant.

[5] = system: human umbilical vein endothelial cells; assay: Transendothelial electrical resistance (TER), Example 4, HUVEC; format: cell-based; settings: 1 μM, umbilical vein endothelial cell monolayers
Procedure: (§1) […]. Assays were also performed in the same manner using passage 8 human brain endothelial cells and passage 8 human umbilical vein endothelial cells.
(§2) An initial TER measurement was taken for each insert using EVOM^2 voltohmmeter connected to an STX100 electrode (both from World Precision Instruments). Measurements were also taken at 24, 48, 72 and 144 hours. All data are presented as TER measurements/cm^2 of insert with TER of blank inserts subtracted.

[6] = system: human renal glomerular microvascular endothelial cells; assay: ECIS, Example 12, glomerular cells; settings: danazol 1 μM, S1P 1 μM
[7] = system: human brain endothelial cells; assay: Transendothelial electrical resistance (TER), Example 4, brain cells; format: cell-based; settings: 1 μM, brain endothelial cell monolayers, except at the earliest time point
Procedure: as §1, §2

[8] = system: human retinal endothelial cells; assay: Actin stress fiber formation (rhodamine-phalloidin F-actin staining), TNFα, Example 7; settings: 30 minutes
[9] = system: human retinal endothelial cells; assay: Actin stress fiber formation, Example 11, retinal cells
[10] = system: human renal glomerular microvascular endothelial cells; assay: Actin stress fiber formation, Example 11, glomerular cells; settings: danazol 1 μM with TNFα 1 ng/ml

## C#C[C@]1(O)CC[C@H]2[C@@H]3CCC4=Cc5oncc5C[C@]4(C)[C@H]3CC[C@@]21C [Danazol, 17α-pregna-2,4-dien-20-yno[2,3-d]isoxazol-17β-ol]
[1]; 0.1 μM danazol 30 minutes
  effect on VEGF-induced stress fiber pattern: made the stress fibers less pronounced and some diffuse staining appeared
[1]; 0.1 μM danazol alone
  F-actin staining pattern: diffuse F-actin staining throughout the cytoplasm
[1]; 1.0 μM danazol 30 minutes
  effect on VEGF-induced stress fiber pattern: fewer thick stress fibers, but focal points were seen on contact surfaces
[1]; 1.0 μM danazol alone
  F-actin staining pattern: the diffuse staining persisted, but stress fibers and focal points around the perimeter of most cells were visible
[1]; 10.0 μM danazol 30 minutes
  effect on VEGF-induced stress fiber pattern: strong stress fiber development with focal points
[1]; 10.0 μM danazol alone
  F-actin staining pattern: no longer any diffuse staining, and stress fiber development and focal points were seen
VE-Cadherin
  effect on VE-cadherin phosphorylation: caused an increase in VE-cadherin phosphorylation
Akt
  effect on Akt phosphorylation: caused an increase in Akt phosphorylation
HUVECs [2]; 1 μM or 10 μM
  effect on tube formation: no effect on tube formation
HUVECs [2]; 50 μM
  effect on tube formation: effective inhibitor of tube formation
[3]; 0.1 μM hydroxyflutamide followed by 0.1 μM danazol
  effect on the TER reduction caused by hydroxyflutamide: prevented the reduction caused by hydroxyflutamide
[3]; Example 10, concentrations of Table 10
  effect on TER compared to the control: increased the TER measurements
HUVECs [4]
  effect on FCS-induced cell invasion: no effect
[5]
  effect on TER: enhanced TER measurements
[6]
  time after treatment until which there was no effect on ECIS: about 30 hours
[7]
  effect on TER: did not appear to have much effect
[8]; 0.1 μM danazol
  F-actin staining pattern: diffuse staining throughout the cytoplasm
[8]; 10.0 μM danazol
  F-actin staining pattern: stress fibers with multiple focal points
[8]; TNFα 50 ng/ml, danazol 0.1 μM or 10 μM, LY294002 10 μM
  effect on TNFα-induced stress fiber development: decreased the number of cells exhibiting stress fiber development
[9]; danazol 1 μM with S1P 1 μM, at 3 hours
  effect on S1P-induced cortical actin rings: seemed to enhance the cortical rings
[9]; danazol 1 μM with TNFα 1 ng/ml
  effect on TNFα-induced stress fibers: decreased the stress fiber formation and/or the thickness of the fibers at all times
[10]
  effect on TNFα-induced stress fibers: decreased the stress fiber formation and the thickness of the fibers at all times
